Laboratory results reported in US12642885B2, “Hemostatic and wound healing turmeric-polymer composite materials” (priority 2021, dated 2026).

Columns and labels:
[1] = system: blood clotting; assay: Effect of curcumin alone on blood clotting
Description: Turmeric powder is the dried powdered rhizomes of Curcuma longa of the ginger family. Turmeric powder comprises 60-70% carbohydrates, 6-13% water, 6-8% protein, 5-10% fat, 3-7% dietary minerals, 3-7% essential oils such as turmerone and germacrone, 2-7% dietary fiber, and 1-6% curcuminoids. (including curcumin). […] The turmeric powder may be passed through a 100 mesh (149 micron) sieve such that the resulting particles are smaller than 149 microns in diameter. Generally, turmeric powder is present in the suspension at a concentration between 0.1 g per mL and 2 g per ml. In one embodiment, the concentration is between 0.1 g per mL and 1 g per mL. In yet another embodiment, the concentration is between 0.1 g per mL and 0.5 g per mL.

[2] = system: most cancer cell lines; details: cited from earlier work
[3] = system: blood clotting; details: Kim et al., BMB Rep. 2012; cited from earlier work

## COc1cc(/C=C/C(=O)CC(=O)/C=C/c2ccc(O)c(OC)c2)ccc1O [curcumin]
[1]
  promotion of blood clotting: not found to promote blood clotting
[2]
  anti-cancer activity: moderate
[2]; most cancer cell lines, peer reviewed literature
  IC50: 20 µM
[3]
  anticoagulant activity: well-known anticoagulant
